From patent publication US12503485B2, “Human aminosterol ENT-03 compounds, related compositions comprising the same, and methods of using the same” (Enterin, Inc., priority 2019, dated 2025)

What was measured:
PTPN7/LC-PTP = target: T1, PTPN7/LC-PTP (Homo sapiens, UniProt P35236); experiment: Phosphatase assay PTPN7/LC-PTP; type: biochemical
T1 construct: purchased Recation Biology Inc

[1] = Body weight of mice after i.p. deuterated ENT-03; type: in vivo
Text: The presence of the deuterium on the side chain likely slows the action of the 2-methylacyl-coenzyme A racemase on C-25, the subsequent action of the dehydrogenase that produces the 24,25-trans-unsaturated derivative by removing the deuterium atoms at C24 and C25, and the subsequent hydration and oxidation at the C24 bond catalyzed by the D-bifunctional protein. Instead, the metabolism of ENT-03D3 will begin with the oxidation at C24 by CYP46A1, yielding the following compound: […]

hAPP-J20 mice = experiment: Morris water maze, hAPP-J20 Alzheimer's mouse model; type: in vivo
[2] = tested on: transcriptomes of the stomach, jejunum and ileum; type: in vivo; conditions: aged mice (78 weeks)
[3] = 2.5 mg/kg i.p. once per week for 6 weeks, vs vehicle

T1 sequence (P35236 whole entry): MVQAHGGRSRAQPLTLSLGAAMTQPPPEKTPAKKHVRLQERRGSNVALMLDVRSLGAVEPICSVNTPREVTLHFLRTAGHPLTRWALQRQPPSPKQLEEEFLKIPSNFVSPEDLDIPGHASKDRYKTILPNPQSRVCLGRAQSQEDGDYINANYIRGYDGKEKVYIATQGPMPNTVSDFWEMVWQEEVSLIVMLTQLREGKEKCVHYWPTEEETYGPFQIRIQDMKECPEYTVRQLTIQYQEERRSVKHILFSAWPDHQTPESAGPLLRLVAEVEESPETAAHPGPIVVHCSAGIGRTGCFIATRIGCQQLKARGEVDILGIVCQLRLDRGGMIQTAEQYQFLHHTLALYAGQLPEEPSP

Structure (SMILES)	activity on PTPN7/LC-PTP, in words (PTPN7/LC-PTP)	effect on body weight, in words [1]	learning during the training phase (hAPP-J20 mice; [3])	memory on the probe day (hAPP-J20 mice; [3])	latency to find the hidden platform during the training phase (hAPP-J20 mice; 2.5 mg/kg/wk i.p. over 6 weeks)	genes increased upon treatment that decreased in expression with ageing [2]
CC(C)[C@@H](CC[C@@H](C)[C@H]1CC[C@H]2[C@@H]3[C@H](O)C[C@H]4C[C@@H](NCCCNCCCCNCCCN)CC[C@]4(C)[C@H]3CC[C@]12C)OS(=O)(=O)O (single isomer, unassigned) [ENT-02, trodusquemine]	target					
CC(CCCC(C)C1CCC2C3C(O)CC4CC(NCCCNCCCCNCCCN)CCC4(C)C3CCC12C)C(=O)O (single isomer, unassigned; ent-03) [ENT-03, 3-β-Spermino-7α-hydroxy-5α-cholestanoic acid]		loss of weight	improved	improved	decreased	36 genes
